Results from US4022907A, “Pharmaceutical compositions containing 1,3-dithiacycloalkylidene malonates” (Nihon Nohyaku Co. Ltd., priority 1975, dated 1977).

Experiments:
[1] = tested on: thioacetamide-induced hepatotoxicity; assay: Therapeutic effect against thioacetamide-induced hepatotoxicity, BSP test (rats); assay type: in vivo, rats (Sprague Dawley strain)
Procedure: In the tests of this Example, TAA was repeatedly administered to animals to prepare test animals suffering from somewhat chronic liver damages, and then the present compounds were administered thereto to know whether or not the compounds were effective against chronic hepatitis.
The degree of the liver damage and the therapeutic effects of the compounds were evaluated according to BSP test. The BSP test is a method in which BSP (sulfobromophthalein sodium), a dye known to be quickly metabolized in and excreted from the liver, is intravenously injected into animals and, after a definite period of time, the blood is taken out to measure the amount of BSP remaining in the plasma. In case the animals are suffering from the liver damage, the dye will remain, according to the degree of the damage, at the stage where a major portion of BSP is metabolized and excreted in the case of normal animals. Five groups of rats (Sprague Dawley strain) were treated as follows:
Group A: The rats were orally administered with 100 mg/kg of thioacetamide,at 3 days intervals for 36 days (12 times of the administration), then were submitted for 10 days to a normal diet.
Group B: The rats were orally administered with 100 mg/kg of thioacetamide at 3 days intervals for 36 days (12 times of the administration), then were submitted for 10 days to the normal diet + 0.2% of compound 4.
Group C: The rats were orally administered with 100 mg/kg of thioacetamide at 3 days intervals for 36 days (12 times of the administration) then were submitted for 10 days to the normal diet + 0.2% of compound 2.
Group D: The rats were orally administered with 100 mg/kg of thioacetamide at 3 days intervals for 36 days((12 times of the administration) then were submitted for 10 days to the normal diet + 0.2% of anethol trithion.
Group E: The rats were submitted to the normal diet as the control.
Five rate were sacrificed from each group at appropriate intervals for BSP (sulfobromophthalein) test, the results of which were shown as amounts (mg) of BSP remaining in 1 dl of plasma.

[2] = tested on: CCl4-induced hepatotoxicity; assay: Protection against CCl4-induced hepatotoxicity (mice); assay type: in vivo, mice (four-week-old male, dd strain); details: 250 mg/kg oral, average of 5 to 6 mice; for Liver damage index: CCl4 0.05 ml/kg oral after 6 h, 24 h after CCl4, scale 0 Normal, 2 Slightly recognized, 4 Clearly observable damage, 6 Heavy damage, CCl4 alone 5.2, control 0; for p-GPT: plasma, 24 h after CCl4 0.05 ml/kg oral, values over 1,000 regarded as 1,000, CCl4 alone >1,000, control 35
Source text: Carbon tetrachloride (CCl4) administration induces centrilobular necrosis of the liver associated with loss of diphosphopyridine nucleotide, hepatic glycogen, coenzyme A and increase in neutral fat. Release of several enzymes from the hepatocytes, and increase of enzyme activities in the plasma are recognized as the result of the damage of the liver. A suitable means for evaluating the degree of damage induced by CCl4 or the degree of protection afforded by drugs is to study the plasma glutamic-pyruvic transaminase(p-GPT) activity.
Methods: The test compounds were dissolved or suspended in olive oil and administered orally at the dose of 250 mg/kg to the mice (Four-week-old male mice-dd strain). After 6 hours, CCl4 was administered orally (0.05 ml/kg as olive oil solution). Animals were killed 24 hours after CCl4 administration, and the liver was grossly observed. The plasma was obtained by centrifugation. Activities of p-GPT were determined by the method of Reitman and Frankels and expressed in Karmen units. Score for liver damage index was as follows:
Each figure indicates average of 5 to 6 mice. Values of p-GPT over 1,000 Karmen unit regarded as 1,000 for calculation of average for convenience.

[3] = tested on: glucose metabolic function of liver; assay: Effect on glucose metabolism, blood sugar (mice); assay type: in vivo; details: 250 mg/kg oral pre-treatment, glucose 4.0 g/kg oral after 6 h
Procedure: Methods: The test compounds dissolved in olive oil and administered orally at the dose of 250 mg/kg to the mice. After 6 hours, 4.0 g/kg of glucose was orally administered. The same amount of glucose was given to the control animals. 0.02 ml of blood was taken from caudal vein of the mice at 30, 60, 90 and 120 min. after glucose administration. Blood sugar was measured by the procedure of SomogyiNelson. Number of animals used was 5 to 6 mice for each treatment.

[4] = tested on: alcohol metabolic function of liver; assay: Effect on concentration of ethylalcohol in the blood (mice); assay type: in vivo; details: 250 mg/kg oral pre-treatment, ethylalcohol 1,000 mg/kg oral after 6 h
Procedure: The test compounds are dissolved or suspended in olive oil and administered orally at the dose of 250 mg/kg to the mice. After 6 hours, 1,000 mg/kg of ethylalcohol was given orally. Blood was taken in a capillary from caudal vein at the time indicated in the results. The plasma was obtained by centrifugation. The concentration of ethylalcohol in the plasma was measured by FID type gas liquid chromatography. Five mice were used for each group.

[5] = Acute oral toxicity (LD50) to male mice; details: mouse, in vivo
Procedure: For example the LD50 values of the compounds 4, 11 and 17 in Table 1 are more than 5,000 mg/kg. Further, these compounds have no detrimental effects on test animals administered therewith, so far as the doses thereof are within an ordinary administration range.

[6] = 2 days of normal diet + 0.2% compound after 12 TAA administrations, TAA only 12.7±3.7, normal 0.4±0.1
[7] = 5 days of normal diet + 0.2% compound after 12 TAA administrations, TAA only 8.7±1.9
[8] = 10 days of normal diet + 0.2% compound after 12 TAA administrations, TAA only 1.4±0.4, normal 0.6±0.1

SMILES: COc1ccc(-c2cc(=S)ss2)cc1 [Anetol trithion, anethol trithion, reference compound]
- BSP remaining in plasma [1, 6]: 9.7 ± 4.1 mg/dL
- BSP remaining in plasma [1, 7]: 7.3 ± 3.4 mg/dL
- BSP remaining in plasma [1, 8]: 0.9 ± 0.1 mg/dL
- Liver damage index [2]: 1.6
- p-GPT [2]: 38 Karmen units

SMILES: COC(=O)C(C(=O)OC)=C1SCS1 [Compound 1]
- Liver damage index [2]: 1.5
- p-GPT [2]: 341 Karmen units

SMILES: CCOC(=O)C(C(=O)OCC)=C1SCS1 [Compound 2]
- Blood Sugar ([3]; 0 min, control 145 ± 11.8): 142 ± 22.8 mg/dL
- Blood Sugar ([3]; 30 min, control 311 ± 21.9): 258 ± 17.5 mg/dL
- Blood Sugar ([3]; 60 min, control 290 ± 14.6): 229 ± 18.7 mg/dL
- Blood Sugar ([3]; 90 min, control 263 ± 13.1): 183 ± 18.1 mg/dL
- Blood Sugar ([3]; 120 min, control 251 ± 13.5): 150 ± 20.4 mg/dL
- Concentration of Ethylalcohol in Plasma ([4]; 0 min, control 27 ± 17): 11 ± 4 ppm.
- Concentration of Ethylalcohol in Plasma ([4]; 5 min, control 875 ± 203): 714 ± 167 ppm.
- Concentration of Ethylalcohol in Plasma ([4]; 15 min, control 810 ± 191): 655 ± 102 ppm.
- Concentration of Ethylalcohol in Plasma ([4]; 30 min, control 690 ± 214): 426 ± 101 ppm.
- Concentration of Ethylalcohol in Plasma ([4]; 60 min, control 167 ± 76): 15 ± 10 ppm.
- BSP remaining in plasma [1, 6]: 7.5 ± 1.2 mg/dL
- BSP remaining in plasma [1, 7]: 3.8 ± 0.4 mg/dL
- BSP remaining in plasma [1, 8]: 0.7 ± 0.1 mg/dL
- Liver damage index [2]: 0.3
- p-GPT [2]: 29 Karmen units

SMILES: CCCOC(=O)C(C(=O)OCCC)=C1SCS1 [Compound 3, Di-n-propyl 1,3-dithietan-2-ylidene malonate]
- Liver damage index [2]: 0.2
- p-GPT [2]: 22 Karmen units

SMILES: CC(C)OC(=O)C(C(=O)OC(C)C)=C1SCS1 [Compound 4, Diisopropyl 1,3-dithietan-2-ylidene malonate]
- Blood Sugar ([3]; 0 min, control 145 ± 11.8): 168 ± 20.4 mg/dL
- Blood Sugar ([3]; 30 min, control 311 ± 21.9): 280 ± 10.8 mg/dL
- Blood Sugar ([3]; 60 min, control 290 ± 14.6): 215 ± 20.1 mg/dL
- Blood Sugar ([3]; 90 min, control 263 ± 13.1): 164 ± 16.5 mg/dL
- Blood Sugar ([3]; 120 min, control 251 ± 13.5): 165 ± 15.3 mg/dL
- Concentration of Ethylalcohol in Plasma ([4]; 0 min, control 27 ± 17): 10 ± 3 ppm.
- Concentration of Ethylalcohol in Plasma ([4]; 5 min, control 875 ± 203): 695 ± 122 ppm.
- Concentration of Ethylalcohol in Plasma ([4]; 15 min, control 810 ± 191): 637 ± 113 ppm.
- Concentration of Ethylalcohol in Plasma ([4]; 30 min, control 690 ± 214): 410 ± 77 ppm.
- Concentration of Ethylalcohol in Plasma ([4]; 60 min, control 167 ± 76): 15 ± 8 ppm.
- BSP remaining in plasma [1, 6]: 7.1 ± 0.8 mg/dL
- BSP remaining in plasma [1, 7]: 3.2 ± 0.6 mg/dL
- BSP remaining in plasma [1, 8]: 0.6 ± 0.2 mg/dL
- LD50 [5]: > 5000 mg/kg
- Liver damage index [2]: 0.0
- p-GPT [2]: 20 Karmen units

SMILES: CCCCOC(=O)C(C(=O)OCCCC)=C1SCS1 [Compound 5]
- Liver damage index [2]: 1.2
- p-GPT [2]: 158 Karmen units

SMILES: CCCCCOC(=O)C(C(=O)OCCCCC)=C1SCS1 [Compound 6]
- Liver damage index [2]: 1.2
- p-GPT [2]: 167 Karmen units

SMILES: CCOC(=O)C(C(=O)OC(C)C)=C1SCS1 [Compound 7]
- Liver damage index [2]: 0.6
- p-GPT [2]: 54 Karmen units

SMILES: COC(=O)C(C(=O)OC)=C1SCCCS1 [Compound 8]
- Liver damage index [2]: 2.8
- p-GPT [2]: 437 Karmen units

SMILES: CCOC(=O)C(C(=O)OCC)=C1SCCCS1 [Compound 9]
- Liver damage index [2]: 2.2
- p-GPT [2]: 366 Karmen units

SMILES: CCCOC(=O)C(C(=O)OCCC)=C1SCCCS1 [Compound 10, Di-n-propyl 1,3-dithian-2-ylidene malonate]
- Blood Sugar ([3]; 0 min, control 145 ± 11.8): 148 ± 14.7 mg/dL
- Blood Sugar ([3]; 30 min, control 311 ± 21.9): 267 ± 21.2 mg/dL
- Blood Sugar ([3]; 60 min, control 290 ± 14.6): 222 ± 18.3 mg/dL
- Blood Sugar ([3]; 90 min, control 263 ± 13.1): 162 ± 14.4 mg/dL
- Blood Sugar ([3]; 120 min, control 251 ± 13.5): 148 ± 18.8 mg/dL
- Concentration of Ethylalcohol in Plasma ([4]; 0 min, control 27 ± 17): 13 ± 4 ppm.
- Concentration of Ethylalcohol in Plasma ([4]; 5 min, control 875 ± 203): 753 ± 78 ppm.
- Concentration of Ethylalcohol in Plasma ([4]; 15 min, control 810 ± 191): 698 ± 95 ppm.
- Concentration of Ethylalcohol in Plasma ([4]; 30 min, control 690 ± 214): 451 ± 114 ppm.
- Concentration of Ethylalcohol in Plasma ([4]; 60 min, control 167 ± 76): 12 ± 11 ppm.
- Liver damage index [2]: 2.2
- p-GPT [2]: 50 Karmen units

SMILES: CC(C)OC(=O)C(C(=O)OC(C)C)=C1SCCCS1 [Compound 11, Diisopropyl 1,3-dithian-2-ylidene malonate]
- LD50 [5]: > 5000 mg/kg
- Liver damage index [2]: 2.3
- p-GPT [2]: 215 Karmen units

SMILES: CCCCOC(=O)C(C(=O)OCCCC)=C1SCCCS1 [Compound 12]
- Liver damage index [2]: 1.8
- p-GPT [2]: 284 Karmen units

SMILES: CCOC(=O)C(C(=O)OC(C)(C)C)=C1SCCCS1 [Compound 13]
- Liver damage index [2]: 1.4
- p-GPT [2]: 125 Karmen units

SMILES: COC(=O)C(C(=O)OC)=C1SCCCCS1 [Compound 14]
- Liver damage index [2]: 3.5
- p-GPT [2]: 762 Karmen units

SMILES: CCOC(=O)C(C(=O)OCC)=C1SCCCCS1 [Compound 15]
- Liver damage index [2]: 3.2
- p-GPT [2]: 533 Karmen units

SMILES: CCCOC(=O)C(C(=O)OCCC)=C1SCCCCS1 [Compound 16]
- Liver damage index [2]: 3.0
- p-GPT [2]: 710 Karmen units

SMILES: CC(C)OC(=O)C(C(=O)OC(C)C)=C1SCCCCS1 [Compound 17, diisopropyl 1,3-dithiepan-2-ylidene malonate]
- LD50 [5]: > 5000 mg/kg
- Liver damage index [2]: 3.6
- p-GPT [2]: 688 Karmen units

SMILES: CCCCOC(=O)C(C(=O)OCCCC)=C1SCCCCS1 [Compound 18]
- Liver damage index [2]: 0.5
- p-GPT [2]: 41 Karmen units

SMILES: CCCCCOC(=O)C(C(=O)OCCCCC)=C1SCCCCS1 [Compound 19]
- Liver damage index [2]: 0.7
- p-GPT [2]: 157 Karmen units

SMILES: CCOC(=O)C(C(=O)OC(C)CC)=C1SCCCCS1 (stereo not shown) [Compound 20]
- Concentration of Ethylalcohol in Plasma ([4]; 0 min, control 27 ± 17): 15 ± 2 ppm.
- Concentration of Ethylalcohol in Plasma ([4]; 5 min, control 875 ± 203): 710 ± 134 ppm.
- Concentration of Ethylalcohol in Plasma ([4]; 15 min, control 810 ± 191): 652 ± 143 ppm.
- Concentration of Ethylalcohol in Plasma ([4]; 30 min, control 690 ± 214): 404 ± 93 ppm.
- Concentration of Ethylalcohol in Plasma ([4]; 60 min, control 167 ± 76): 18 ± 6 ppm.
- Liver damage index [2]: 1.0
- p-GPT [2]: 188 Karmen units

SMILES: NC(=O)CCCCC1CCSS1 (stereo not shown) [Thioctic acid amide, reference compound]
- Liver damage index [2]: 4.8
- p-GPT [2]: 763 Karmen units
